Assay results from US20230278998A1, “Compound containing structure of a five-membered heteroaromatic ring, pharmaceutical compositions thereof and applications thereof” (280 Bio, Inc., priority 2022, published 2023).

Molecular target: PARG (389-976) (Homo sapiens (Human), UniProt Q86W56)
Experiment: PARG enzyme inhibition assay (TR-FRET)
Assay type: biochemical
Procedure: PARG Enzyme Inhibition Assay
PARG in vitro assays were conducted in standard 384-well plates in a total volume of 15 μL.

Sequence of PARG (389-976) (Q86W56 389-976): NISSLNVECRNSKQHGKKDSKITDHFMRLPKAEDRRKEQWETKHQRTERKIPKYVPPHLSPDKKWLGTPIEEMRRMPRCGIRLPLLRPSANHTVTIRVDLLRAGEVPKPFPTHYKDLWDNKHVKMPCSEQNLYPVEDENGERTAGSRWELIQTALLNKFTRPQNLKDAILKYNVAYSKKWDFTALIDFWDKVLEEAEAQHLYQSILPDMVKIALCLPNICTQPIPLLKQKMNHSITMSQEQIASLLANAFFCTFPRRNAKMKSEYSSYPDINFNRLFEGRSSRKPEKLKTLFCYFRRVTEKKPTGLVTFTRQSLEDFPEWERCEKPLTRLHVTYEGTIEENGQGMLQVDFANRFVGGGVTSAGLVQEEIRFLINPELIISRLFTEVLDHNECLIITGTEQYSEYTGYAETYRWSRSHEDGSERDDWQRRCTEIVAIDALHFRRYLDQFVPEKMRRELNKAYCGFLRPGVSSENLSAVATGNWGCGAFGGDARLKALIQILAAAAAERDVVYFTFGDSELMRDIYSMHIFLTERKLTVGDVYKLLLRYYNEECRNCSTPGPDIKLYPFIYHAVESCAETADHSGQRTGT

| SMILES | IC50 (Table 3, class symbol) [nM] | IC50 (Table 2, class symbol) [nM] | other results |
| --- | --- | --- | --- |
| Cn1nc(-c2nnc(C(F)F)s2)c2cc(S(=O)(=O)NC3(C#N)CC3)cc(C3CC4CCC(C3)N4)c21 (stereo not drawn) [Compound 121] | < 100 | – | – |
| CC(C)CC(=O)N1CCN(c2cc(S(=O)(=O)NC3(C#N)CC3)cc3c(-c4nnc(C(F)F)s4)nn(C)c23)CC1 [Compound 146] | < 100 | – | – |
| CC(C)C(=O)N1CCN(c2cc(S(=O)(=O)NC3(C#N)CC3)cc3c(-c4cnn(C)c4)nn(C)c23)CC1 [Compound 61] | – | < 100 | – |
| Cn1nc(-c2nnc(C(F)F)s2)c2cc(S(=O)(=O)NC3(C#N)CC3)cc(N3CCC(N4CCCC4=O)CC3)c21 [Compound 139] | < 100 | – | – |
| CC(C)N1CCN(c2cc(S(=O)(=O)NC3(C#N)CC3)cc3c(-c4nnc(C(F)F)s4)nn(C)c23)CC1 [Compound 54] | – | < 100 | – |
| Cn1nc(-c2nnc(C(F)F)s2)c2cc(S(=O)(=O)NC3(C#N)CC3)cc(N3CCC(N4CCCC4)CC3)c21 [Compound 134] | < 100 | – | – |
| Cn1nc(-c2nnc(C(F)F)s2)c2cc(S(=O)(=O)NC3(C)CC3)cc(N3CCn4cncc4C3)c21 [Compound 20] | – | < 100 | – |
| CC(C)C(=O)N1C2CCC1CN(c1cc(S(=O)(=O)NC3(C#N)CC3)cc3c(-c4nnc(C(F)F)s4)cn(C)c13)C2 [Compound 123] | < 100 | – | – |
| N#CC1(NS(=O)(=O)c2cc(C3=CC4CCC(C3)N4C(=O)C3CCCC3)c3c(c2)c(-c2nnc(C(F)F)s2)nn3CC(F)(F)F)CC1 (stereo not drawn) [Compound 119] | < 100 | – | – |
| Cn1nc(-c2nnc(C(F)F)s2)c2cc(S(=O)(=O)NC3(C#N)CC3)cc(N3CCN(C(=O)C4(C)CCC4)CC3)c21 [Compound 143] | < 100 | – | – |
| Cc1nc(C)c(Cn2cc(-c3nnc(C(F)F)s3)c3cc(S(=O)(=O)NC4(C)CC4)ccc32)s1 [Compound 8] | – | – | IC50 (Table 1, class symbol): < 100 nM |
| C[C@H](O)C(=O)N1C2C=C(c3cc(S(=O)(=O)NC4(C#N)CC4)cc4c(-c5nnc(C(F)F)s5)nn(C)c34)CC1CC2 (stereo partly drawn) [Compound 80] | < 100 | – | – |
| CCn1nc(-c2nnc(C(F)F)s2)c2cc(S(=O)(=O)NC3(C#N)CC3)cc(N3CCN(C(=O)C(C)C)[C@H](C)C3)c21 [Compound 103] | < 100 | – | – |
| Cn1nc(-c2nnc(C(F)F)s2)c2cc(S(=O)(=O)NC3(C#N)CC3)cc(N3CCN(C(=O)C4CC4)CC3)c21 [Compound 24] | – | < 100 | – |
| CCN(C)C(=O)N1CCN(c2cc(S(=O)(=O)NC3(C#N)CC3)cc3c(-c4nnc(C(F)F)s4)nn(C)c23)CC1 [Compound 145] | < 100 | – | – |
| Cn1nc(-c2nnc(C(F)F)s2)c2cc(S(=O)(=O)NC3(C#N)CC3)cc(-c3ccc(C(=O)N4CCCC4)cc3)c21 [Compound 135] | < 100 | – | – |
| CC(C)C(=O)N1[C@H](C)CN(c2cc(S(=O)(=O)NC3(C#N)CC3)cc3c(-c4nnc(C(F)F)s4)nn(CC(F)(F)F)c23)C[C@@H]1C [Compound 104] | < 100 | – | – |
| Cn1nc(-c2nnc(C(F)F)s2)c2cc(S(=O)(=O)NC3(C#N)CC3)cc(N3CCC(C(C)(C)O)CC3)c21 [Compound 76] | < 100 | – | – |
| Cn1nc(-c2nnc(C(F)F)s2)c2cc(S(=O)(=O)NC3(C#N)CC3)cc(N3CC4CCC(C3)C4C(C)(C)O)c21 (stereo not drawn) [Compound 130] | 100 to 1000 | – | – |
| COc1ccc(CN(C2(C#N)CC2)S(=O)(=O)c2cc(N3CC4CCC(C3)N4C(=O)C(C)C)c3c(c2)c(-c2nnc(C(F)F)s2)nn3CCO)cc1 [Compound 96] | 100 to 1000 | – | – |
| Cc1nnc(-c2nn(Cc3sc(C)nc3C)c3ccc(S(=O)(=O)NC4(C)CC4)cc23)s1 [Compound 2] | – | – | IC50 (Table 1, class symbol): < 100 nM |

| SMILES | IC50 (Table 3, class symbol) [nM] | IC50 (Table 2, class symbol) [nM] | other results |
| --- | --- | --- | --- |
| C[C@H](N)C(=O)N1C2CCC1CC(c1cc(S(=O)(=O)NC3(C#N)CC3)cc3c(-c4nnc(C(F)F)s4)nn(C)c13)C2 (stereo partly drawn) [Compound 128] | < 100 | – | – |
| Cn1nc(-c2nnc(C(F)F)s2)c2cc(S(=O)(=O)NC3(C)CC3)cc(N3CCN(C(=O)C4CC4)CC3)c21 [Compound 27] | – | < 100 | – |
| Cn1nc(-c2nnc(C(F)F)s2)c2cc(S(=O)(=O)NC3(C#N)CC3)cc(N3CCN(C(=O)C4CCCC4)CC3)c21 [Compound 142] | < 100 | – | – |
| Cn1nc(-c2nnc(C(F)F)s2)c2cc(S(=O)(=O)NC3(C#N)CC3)cc(N3CC4CCC(C3)C4C(=O)N3CCCC3)c21 (stereo not drawn) [Compound 113] | < 100 | – | – |
| CC(C)C(=O)N1CCN(c2cc(S(=O)(=O)NC(C)(C)C)cc3c(-c4nnc(C(F)F)s4)nn(C)c23)CC1 [Compound 131] | < 100 | – | – |
| CC(C)C(=O)N1C2CCCC1CN(c1cc(S(=O)(=O)NC3(C#N)CC3)cc3c(-c4nnc(C(F)F)s4)nn(C)c13)C2 [Compound 84] | < 100 | – | – |
| CC(C)C(=O)N1CCN(c2cc(S(=O)(=O)NC3(C#N)CC3)cc3c(-c4nnc(C(F)F)s4)nn(CC(F)(F)F)c23)C[C@@H]1C [Compound 108] | < 100 | – | – |
| CCn1nc(-c2nnc(C(F)F)s2)c2cc(S(=O)(=O)NC3(C#N)CC3)cc(N3C4CCC3CN(C(=O)C(C)C)C4)c21 [Compound 94] | < 100 | – | – |
| CCn1nc(-c2nnc(C(F)F)s2)c2cc(S(=O)(=O)NC3(C)CC3)cc(N3CCN(C(=O)C(C)C)CC3)c21 [Compound 22] | – | < 100 | – |
| CC(C)C(=O)N1CCN(c2cc(S(=O)(=O)NC3(C)CC3)cc3c(-c4nnc(C(F)F)s4)nn(C)c23)C2CC21 (stereo not drawn) [Compound 63] | – | < 100 | – |
| CC(C)S(=O)(=O)N1CC=C(c2cc(S(=O)(=O)NC3(C#N)CC3)cc3c(-c4nnc(C(F)F)s4)nn(C)c23)CC1 [Compound 141] | < 100 | – | – |
| CC(C)C(=O)N1C2CCC1CN(c1cc(S(=O)(=O)NC3(C#N)CC3)cc3c(-c4nnc(C(F)F)s4)nn(CC(F)(F)F)c13)C2 [Compound 95] | < 100 | – | – |
| Cn1nc(-c2nnc(C(F)F)s2)c2cc(S(=O)(=O)NC3(C#N)CC3)cc(N3CC4(CCOCC4)C3)c21 [Compound 106] | < 100 | – | – |
| Cc1nc(C)c(Cn2nc(-c3nnc(C(F)F)s3)c3cc(S(=O)(=O)NC4(C)CC4)ccc32)s1 [Compound 1] | – | – | IC50 (Table 1, class symbol): < 100 nM |
| Cn1nc(-c2nnc(C(F)F)s2)c2cc(S(=O)(=O)NC3(C#N)CC3)cc(N3CCN(c4ccccc4)CC3)c21 [Compound 53] | – | < 100 | – |
| CC(C)C(=O)N1CC=C(c2cc(S(=O)(=O)NC3(C#N)CC3)cc3c(-c4nnc(C(F)F)s4)nn(C)c23)CC1 [Compound 40] | – | < 100 | – |
| Cc1nc(C)c(Cn2nc(-c3nnc(C(F)F)s3)c3cc(S(=O)(=O)NC4(C)CC4)cc(F)c32)s1 [Compound 14] | – | < 100 | – |
| Cn1nc(-c2nnc(C(F)F)s2)c2cc(S(=O)(=O)NC3(C#N)CC3)cc(N3CCN(C(=O)C4CCC4)CC3)c21 [Compound 144] | < 100 | – | – |
| Cn1nc(-c2nnc(C(F)F)s2)c2cc(S(=O)(=O)NC3(C#N)CC3)cc(N3CCC(CO)CC3)c21 [Compound 44] | – | < 100 | – |
| CC(C)C(=O)N1C2C=C(c3cc(S(=O)(=O)NC4(C#N)CC4)cc4c(-c5nnc(C(F)F)s5)nn(C)c34)CC1COC2 (stereo not drawn) [Compound 85] | < 100 | – | – |
| Cn1nc(-c2nnc(C(F)F)s2)c2cc(S(=O)(=O)NC3(C)CC3)cc(N3CCOCC3)c21 [Compound 25] | – | < 100 | – |

| SMILES | IC50 (Table 3, class symbol) [nM] | IC50 (Table 2, class symbol) [nM] | other results |
| --- | --- | --- | --- |
| C[C@@H]1CN(c2cc(S(=O)(=O)NC3(C#N)CC3)cc3c(-c4nnc(C(F)F)s4)nn(C)c23)CCN1C(=O)N(C)C [Compound 70] | < 100 | – | – |
| CN(C)C(=O)N1CCN(c2cc(S(=O)(=O)NC3(C#N)CC3)cc3c(-c4nnc(C(F)F)s4)nn(C)c23)CC1 [Compound 33] | – | < 100 | – |
| Cn1nc(-c2nnc(C(F)F)s2)c2cc(S(=O)(=O)NC3(C#N)CC3)cc(N3CCOCC3)c21 [Compound 29] | – | < 100 | – |
| Cn1nc(-c2nnc(C(F)F)s2)c2cc(S(=O)(=O)NC3(C#N)CC3)cc(N3CCN(S(C)(=O)=O)CC3)c21 [Compound 34] | – | < 100 | – |
| CN1CCC(C(=O)N2C3CCC2CN(c2cc(S(=O)(=O)NC4(C#N)CC4)cc4c(-c5nnc(C(F)F)s5)nn(C)c24)C3)C1 (stereo not drawn) [Compound 74] | < 100 | – | – |
| CC(C)C(=O)N1CC2CCC(C1)N2c1cc(S(=O)(=O)NC2(C)CC2)cc2c(-c3nnc(C(F)F)s3)nn(C)c12 [Compound 62] | – | < 100 | – |
| Cc1nc(C)c(Cn2nc(-c3nnc(C(F)F)s3)c3cc(S(=O)(=O)NC4(C)CC4)cc(N4CCN(C(=O)C(C)C)CC4)c32)s1 [Compound 19] | – | < 100 | – |
| Cn1nc(-c2nnc(C(F)F)s2)c2cc(S(=O)(=O)NC3(C#N)CC3)cc(N3CCC(N=[N+]=[N-])CC3)c21 [Compound 60] | – | < 100 | – |
| Cn1nc(-c2nnc(C(F)F)s2)c2cc(S(=O)(=O)NC3(C#N)CC3)cc(N3CCN(C(=O)c4ccccc4)CC3)c21 [Compound 36] | – | < 100 | – |
| Cc1nnc(-c2nn(C)c3c(N4CCN(C(=O)C(C)C)CC4)cc(S(=O)(=O)NC4(C#N)CC4)cc23)s1 [Compound 56] | – | < 100 | – |
| C[C@H](N)C(=O)N1CCC(c2cc(S(=O)(=O)NC3(C#N)CC3)cc3c(-c4nnc(C(F)F)s4)nn(C)c23)CC1 [Compound 98] | < 100 | – | – |
| CC(C)C(=O)N1CCN(c2cc(S(=O)(=O)NC3(C#N)CC3)cc3c(-c4nnc(C(F)F)s4)nn(C(F)F)c23)CC1 [Compound 55] | – | < 100 | – |
| Cn1nc(-c2nnc(C(F)F)s2)c2cc(S(=O)(=O)NC3(C#N)CC3)cc(N3CCN(C(=O)C4(C)CC4)CC3)c21 [Compound 38] | – | < 100 | – |
| CC(C)S(=O)(=O)N1CCN(c2cc(S(=O)(=O)NC3(C#N)CC3)cc3c(-c4nnc(C(F)F)s4)nn(C)c23)CC1 [Compound 48] | – | < 100 | – |
| Cn1nc(-c2nnc(C(F)F)s2)c2cc(S(=O)(=O)NC3(C#N)CC3)cc(N3CCN(C(=O)C(F)(F)F)CC3)c21 [Compound 47] | – | < 100 | – |
| CC(C)C(=O)N1CC2(C1)CN(c1cc(S(=O)(=O)NC3(C#N)CC3)cc3c(-c4nnc(C(F)F)s4)nn(C)c13)C2 [Compound 77] | < 100 | – | – |
| CC(C)C(=O)N1C2C=C(c3cc(S(=O)(=O)NC4(C#N)CC4)cc4c(-c5nnc(C(F)F)s5)nn(C)c34)CC1CCC2 (stereo not drawn) [Compound 83] | < 100 | – | – |
| Cn1nc(-c2nnc(C(F)F)s2)c2cc(S(=O)(=O)NC3(C#N)CC3)cc(N3CCN(C(=O)CC(F)(F)F)CC3)c21 [Compound 52] | – | < 100 | – |
| CC(C)C(=O)N1CCN2c3cc(S(=O)(=O)NC4(C#N)CC4)cc4c(-c5nnc(C(F)F)s5)nn(c34)CC2C1 (stereo not drawn) [Compound 117] | < 100 | – | – |
| C[C@H]1CN(c2cc(S(=O)(=O)NC3(C#N)CC3)cc3c(-c4nnc(C(F)F)s4)nn(C)c23)CCO1 [Compound 35] | – | < 100 | – |
| COCCn1nc2c(N3CC4CCC(C3)N4C(=O)C(C)C)cc(S(=O)(=O)NC3(C#N)CC3)cc2c1-c1nnc(C(F)F)s1 [Compound 99] | < 100 | – | – |
